Patent US20070208074A1, “Methods and compositions for treating and preventing tumors” (priority 2006, published 2007)

Experiments:
U87-S3C cells = assay: Cell spreading assay on myelin; assay type: cell-based; details: recombinant human IL-8 50 ng/ml vs untreated U87-S3C cells on myelin; n=3, p<0.0005
Experimental: FIG. 4I is a graph quantifying the level of normalized cell spreading. IL-8 addition rescues STAT3 suppression of glioma cell spreading on myelin.
1×10^4 cells were seeded onto glass coverslips pre-coated with polyornithine ([…]) and additionally coated with PBS or 20 μg/ml myelin. Where indicated recombinant human IL-8 (R&D) was added at a concentration of 50 ng/ml. Cells were incubated at 37° C. for 1 hour to attach and then fixed with 4% paraformaldehyde for 20 minutes at RT. Coverslips were stained with phallotoxin for 20 minutes according to the manufacturer's directions (Molecular probes). Nuclei were counterstained with 0.2 μg/ml Hoechst (Sigma). Spread versus unspread cells were counted blind, and a percentage of spread cells over the total number of cells calculated. Pictures were taken at 60× using a Nikon inverted microscope.

SF188 cells = assay: Growth curve / population growth with LIF; assay type: cell-based, human
Experimental: (§1) FIG. 2B is a series of graphs showing growth curves of PTEN-mutant glioma cell lines (U87 and A172) and PTEN-expressing (SF188) glioma cells lines that were treated with LIF (10 ng/ml daily) or left untreated.
FIG. 2C is a bar graph showing the population growth of SF188 cells infected with a retrovirus containing an IRES-GFP cassette alone or that also encodes wild type STAT3 or a dominant negative STAT3 (S3D).

U87 cells = assay: Growth curve with LIF; assay type: cell-based, human; details: LIF 10 ng/ml daily; PTEN-deficient cell line
Experimental: as §1

A172 cells = assay: Growth curve with LIF; assay type: cell-based, human; details: LIF 10 ng/ml daily; PTEN-deficient cell line
Experimental: as §1

[1] = test system: wild type PTEN-expressing glioma cells (SF188 and LN229); assay: LIF-induced STAT3 tyrosine phosphorylation, immunoblot; assay type: cell-based, human; details: serum starved 24 hours, 10 ng/ml LIF for 15 minutes
Experimental: (§2) FIG. 2A is a series of immunoblots showing the levels of PYS3 and STAT3 in glioma cells that harbor PTEN mutations (U87, A172, and U138) or that express wild type PTEN (SF188 and LN229) with the STAT3 and PYS3 antibodies. Cells were serum starved for 24 hours and then treated with 100 ng/ml CNTF (C) or 10 ng/ml LIF (L) for 15 minutes.
(§3) The inhibition of the STAT3 signaling pathway was also evident in human glioma cell lines that harbor PTEN mutations.

[2] = test system: PTEN-deficient glioma cells (U87, A172, and U138); assay: as above; assay type: cell-based, human; details: serum starved 24 hours, 10 ng/ml LIF for 15 minutes
Experimental: as §2, §3

[3] = test system: control neuroblastoma cell line SK-N-MC; assay: as above; assay type: cell-based; details: serum starved 24 hours, 10 ng/ml LIF for 15 minutes
LN229 cells = assay: Population growth with LIF after lentiviral infection; assay type: cell-based, human; details: LIF 10 ng/ml daily; control lentivirus-infected LN229; n=3, p<0.05
Text: FIG. 2D is a pair of immmunoblots showing STAT3 and actin levels in 293T cells infected with either control lentivirus or lentivirus encoding one of two small interfering hairpin RNAs directed at STAT3 and selected with puromycin (left panel). […] The right panel is a graph showing population growth of LN229 cells infected with control lentivirus or lentivirus encoding stat3i1 or stat3i2 and selected with puromycin.
Recombinant retroviruses were made by transfecting 293T cells with pMD.MLV gag.pol, pHDM.G (VSVG pseudotype), and the transfer plasmid (i.e. pBABE). Cells were infected with equal amounts of retroviruses in the presence of 8 μg/ml polybrene (Sigma). A population of infected cells for each construct was collected by sorting cells for GFP expression. PTEN−/− astrocytes were infected with pBABE or pBABE/S3C retroviruses and infected cells were selected with puromycin (4 μg/ml). PTEN flox/flox astrocytes were infected with MyrAkt and infected cells were selected with 250 μg/ml hygromycin (Invitrogen). Cloning of recombinant lentiviruses coding for a short hairpin RNA directed against STAT3 or human IL-8 was carried out using the pLL3.7 vector. […]

rat neural stem cells = assay: BrdU incorporation with LIF; assay type: cell-based; details: LIF 10 ng/ml, 48 hrs; vector-infected cells vs no treatment; n=3, p<0.05
Experimental: FIG. 2E (right panel) is a bar graph showing BrdU incorporation in rat neural stem cells treated with LIF (10 ng/ml, 48 hrs) following infection with lentivirus and selection with puromycin.

In the case of “IL-8: recombinant human IL-8 (R&D) added at 50 ng/ml”, the “cell spreading on myelin” value (U87-S3C cells) is reported as “significantly more U87-S3C cells spread on myelin”.

With “LIF: cytokine ligand of leukemia inhibitory factor receptorβ (LIFRβ), used at 10 ng/ml” the cell population growth (SF188 cells; LIF 10 ng/ml daily vs untreated, n=3, p<0.05) was “significantly reduced”, the population growth (SF188 cells; LIF 10 ng/ml daily, SF188 infected with control-vector or wild type STAT3 retrovirus, n=3, p<0.01) was “significant reduction in population growth” and the proliferation (U87 cells) was “little effect on the proliferation”. For the same substance, the proliferation (A172 cells) was “little effect on the proliferation”, the STAT3 tyrosine phosphorylation [1] was “robustly induced STAT3 tyrosine phosphorylation” and the STAT3 tyrosine phosphorylation [2] was “failed to effectively induce the STAT3 phosphorylation”. The STAT3 tyrosine phosphorylation [3] was “robustly induced STAT3 tyrosine phosphorylation”, the population growth (LN229 cells) was “significant reduction in growth” and the BrdU incorporation (rat neural stem cells) was “significantly less BrdU incorporation”.
